Some test systems named below: 786-0 renal; A549 NSCLC; HS 578T breast; K-562 leukemia; NCI-H226 lung; OVCAR-4 ovarian; OVCAR-8 ovarian; SNB-19 CNS; TK-10 renal; UACC-257 melanoma.
What all share (assay): growth of human tumour cells (NCI), 48 h

Where “and” joins values, the source holds several entries; their conditions need not be identical. Equal values may be shown once.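 Grown in 96-well plates, cells were treated for 48 hours with each compound at five concentrations. Insufficient inhibition: endpoint recorded as highest concentration tested. GI50 = concentration required for 50% inhibition of growth. TGI: concentration producing complete growth inhibition.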

As for `CN1CCN(Cc2ccc(NC(=O)c3cncc(C#Cc4cnc(N)c5cccnc45)c3)cc2C(F)(F)F)CC1`, the GI50 is 1.26 µM in the assay on 786-0 renal; 1.35 µM with A549 NSCLC; 0.196 µM in the assay on HS 578T breast; 0.005 µM in the assay with K-562 leukemia; 0.191 µM in the assay on NCI-H226 lung; 0.149 µM in the assay with OVCAR-4 ovarian. The GI50 with OVCAR-8 ovarian was 0.397 µM; in the assay with SNB-19 CNS, 2.05 µM; with TK-10 renal, 1.33 µM; in the assay with UACC-257 melanoma, 0.273 µM. Also, the TGI in the assay with 786-0 renal was over 50 µM; in the assay with A549 NSCLC, over 50 µM; with HS 578T breast it was 1.61 µM; in the assay with K-562 leukemia it was over 50 µM; in the assay on NCI-H226 lung it was over 50 µM; in the assay with OVCAR-4 ovarian it was over 50 µM. Moreover, the TGI in the assay on OVCAR-8 ovarian, in the assay with SNB-19 CNS, in the assay on TK-10 renal and in the assay with UACC-257 melanoma was over 50 µM in each case.

As for `Nc1ccccc1C(=O)CCC1C(=O)NC(=S)NC1=O`, the TGI in the assay with 786-0 renal, in the assay on A549 NSCLC, with HS 578T breast, in the assay on K-562 leukemia, in the assay with NCI-H226 lung and in the assay on OVCAR-4 ovarian was over 100 µM throughout. The TGI in the assay on OVCAR-8 ovarian, in the assay on SNB-19 CNS, in the assay on TK-10 renal and in the assay on UACC-257 melanoma was over 100 µM each time.

With `Oc1c(Cl)cc(Cl)c2ccc(Cn3cc(-c4ccc(C(F)(F)F)cc4)nn3)nc12`, the GI50 in the assay with 786-0 renal was 1.82 µM; with A549 NSCLC, 16.5 µM; with HS 578T breast, 2.38 µM; in the assay with K-562 leukemia it was 0.479 µM; with NCI-H226 lung, 5.64 µM; with OVCAR-4 ovarian, 1.43 µM. For the same compound, the GI50 with OVCAR-8 ovarian was 2.75 µM; in the assay with SNB-19 CNS, 8.94 µM; in the assay on TK-10 renal, 1.95 µM; in the assay with UACC-257 melanoma it was 1.23 µM. Besides, the TGI in the assay with 786-0 renal was 4.59 µM; in the assay with A549 NSCLC, 38.6 µM; in the assay on HS 578T breast it was 8.44 µM; in the assay with K-562 leukemia, over 100 µM; with NCI-H226 lung, 26.7 µM; in the assay with OVCAR-4 ovarian, 3.37 µM. Also, the TGI came to 11.5 µM in the assay with OVCAR-8 ovarian, 22.8 µM with SNB-19 CNS, 4.22 µM in the assay on TK-10 renal and 3.3 µM with UACC-257 melanoma.

For the compound `Clc1ccccc1-c1nnc2c(Cc3ccccc3)nc3ccccc3n12`, the GI50 is 12.5 µM in the assay with 786-0 renal; 8.78 µM in the assay on A549 NSCLC; 9.04 µM in the assay with HS 578T breast; 5.55 µM in the assay with K-562 leukemia; 6.91 µM in the assay on NCI-H226 lung; 5.55 µM in the assay on OVCAR-4 ovarian. Further, the GI50 in the assay with OVCAR-8 ovarian is 7.21 µM; in the assay with SNB-19 CNS it was 36.3 µM; in the assay on TK-10 renal, 54 µM; in the assay with UACC-257 melanoma, 33.3 µM. For the same compound, the TGI in the assay on 786-0 renal was 98.3 µM; in the assay on A549 NSCLC it was over 100 µM; in the assay on HS 578T breast it was over 100 µM; with K-562 leukemia, over 100 µM; with NCI-H226 lung, over 100 µM; with OVCAR-4 ovarian it was over 100 µM. Moreover, the TGI with OVCAR-8 ovarian, in the assay on SNB-19 CNS, in the assay on TK-10 renal and in the assay with UACC-257 melanoma was over 100 µM each time.

With `CO[C@H]1CC(O[C@@H]2/C(C)=C/C[C@@H]3C[C@@H](C[C@]4(CC[C@H](C)[C@@H](C5CCCCC5)O4)O3)OC(=O)[C@@H]3C=C(C)/C(=N/O)[C@H]4OC/C(=C\C=C\[C@@H]2C)[C@]43O)O[C@@H](C)C1O` (stereo not given in full), the GI50 in the assay with 786-0 renal was 1.14 µM; in the assay with A549 NSCLC, 0.935 µM; with HS 578T breast it was 1.22 µM; in the assay with K-562 leukemia, 1.17 µM; in the assay on NCI-H226 lung, 0.73 µM; in the assay on OVCAR-4 ovarian it was 1.02 µM. The GI50 in the assay with OVCAR-8 ovarian is 0.962 µM; in the assay with SNB-19 CNS, 1.66 µM; with TK-10 renal, 1.13 µM; with UACC-257 melanoma, 0.987 µM. Further, the TGI with 786-0 renal turned out to be 2.62 µM; in the assay on A549 NSCLC, 2.66 µM; in the assay with HS 578T breast, 5.52 µM; with K-562 leukemia, 2.67 µM; in the assay with NCI-H226 lung it was 1.43 µM; in the assay with OVCAR-4 ovarian, 2.65 µM. The TGI turned out to be 2.41 µM with OVCAR-8 ovarian, 9.01 µM in the assay with SNB-19 CNS, 2.71 µM in the assay on TK-10 renal and 2.55 µM in the assay on UACC-257 melanoma.

For the compound `O=C1C=CC(=O)c2c(O)c3c(c(O)c21)C[C@H](O)[C@H](O)[C@@H]3O`, the TGI in the assay on 786-0 renal was 4.06 µM; in the assay on A549 NSCLC, 9.39 µM; with HS 578T breast, 7.87 µM; in the assay on K-562 leukemia it was over 21.2 µM; in the assay on NCI-H226 lung, 36.7 µM; with OVCAR-4 ovarian, 3.45 µM. For the same compound, the TGI was 6.59 µM in the assay with OVCAR-8 ovarian, 26.9 µM in the assay on SNB-19 CNS, 3.27 µM with TK-10 renal and 2.64 µM in the assay on UACC-257 melanoma.

As for `COc1cc(C(=O)c2cnc(-c3cccc4[nH]ccc34)[nH]2)cc(OC)c1OC`, the TGI in the assay with 786-0 renal is over 100 µM; in the assay with A549 NSCLC it was over 100 µM; in the assay on HS 578T breast, over 100 µM; in the assay on K-562 leukemia, 42.3 µM; in the assay on OVCAR-4 ovarian, over 100 µM; in the assay with OVCAR-8 ovarian, 48.2 µM. The TGI is over 100 µM in the assay with SNB-19 CNS, 66.6 µM in the assay with TK-10 renal and over 100 µM in the assay with UACC-257 melanoma. Besides, the GI50 in the assay on K-562 leukemia was 0.0386 µM and < 0.01 µM; with NCI-H226 lung, 0.169 µM; in the assay with OVCAR-4 ovarian, under 0.01 µM; with SNB-19 CNS it was 0.0465 µM and < 0.01 µM; with TK-10 renal, under 0.01 µM; with UACC-257 melanoma, 11.9 µM.

On to `CCCCCCCCCCCCOC1C(CNC(=O)C2OC3OC(C)(C)OC3C2NC(=O)CN2CCN(c3ccc(OC)cc3)CC2)OC2OC(C)(C)OC21` (stereo not given), for which the GI50 was 11.8 µM in the assay on 786-0 renal; 3.18 µM in the assay with A549 NSCLC; 3.78 µM with HS 578T breast; 3.31 µM in the assay on K-562 leukemia; 5.56 µM in the assay on NCI-H226 lung; 3.83 µM in the assay with OVCAR-4 ovarian. Further, the GI50 was 3.91 µM in the assay with OVCAR-8 ovarian, 5.3 µM with SNB-19 CNS, 3.96 µM in the assay on TK-10 renal and 3.83 µM in the assay with UACC-257 melanoma. Moreover, the TGI in the assay on 786-0 renal was 24 µM; in the assay on A549 NSCLC, 18.2 µM; in the assay on HS 578T breast, 17 µM; in the assay with K-562 leukemia, 11.2 µM; in the assay on NCI-H226 lung, 19.2 µM; in the assay with OVCAR-4 ovarian, 15.8 µM. The TGI is 12.9 µM with OVCAR-8 ovarian, 17 µM in the assay with SNB-19 CNS, 13.4 µM with TK-10 renal and 12.7 µM with UACC-257 melanoma.

Source of the values: PubChem BioAssay (NCI).
